The source of these data is ChEMBL document CHEMBL2375301, “Design and synthesis of novel 4-benzothiazole amino quinazolines Dasatinib derivatives as potential anti-tumor agents” (Eur J Med Chem, 2013).

Structures are written as SMILES. Bounds are passed on as bounds.

For one test, the system named is DLD-1. Kind of test: Cytotoxicity against human DLD1 cells after 72 hrs by WST-8 assay. The test is classed as functional, cell-based. The note with it: DLD-1, 72 h. A general note: Tetrazolium assays rely on reduction of a dye to a coloured formazan, in cell work by metabolically active cells.
For a further test, the system named is NCI-H661. Kind of test: Cytotoxicity against human NCI-H661 cells after 72 hrs by WST-8 assay. It is filed as functional, cell-based. The note with it: NCI-H661, 72 h.
The test system of a further test is A549. Kind of test: Cytotoxicity against human A549 cells after 72 hrs by WST-8 assay. The test is classed as functional, cell-based. The note with it: A549, 72 h.
A further test deals with HCT-116. Kind of test: Cytotoxicity against human HCT116 cells after 72 hrs by WST-8 assay. It is filed as functional, cell-based. The note with it: HCT-116, 72 h.
In the next test the test system is U-937. Kind of test: Cytotoxicity against human U937 cells after 72 hrs by WST-8 assay. It is filed as functional, cell-based. The note with it: U-937, 72 h.
Test [1] concerns the target Epidermal growth factor receptor (Homo sapiens) (UniProt P00533). The note with it: at 10 µM.
Description: Inhibition of EGFR (unknown origin) at 10 uM relative to control
Test [2] concerns the target Proto-oncogene tyrosine-protein kinase Src (Homo sapiens) (UniProt P12931). The note with it: at 10 µM.
Description: Inhibition of human recombinant SRC at 10 uM relative to control
For test [3], the target named is Tyrosine-protein kinase ABL1 (Homo sapiens) (UniProt P00519). The settings on record: at 10 µM.
Description: Inhibition of human recombinant ABL at 10 uM relative to control
Another test has as its system K562. Kind of test: Cytotoxicity against human K562 cells after 72 hrs by WST-8 assay. The test is classed as functional, cell-based. The settings on record: K562, 72 h.

Chain of Epidermal growth factor receptor (Homo sapiens) (P00533 whole entry): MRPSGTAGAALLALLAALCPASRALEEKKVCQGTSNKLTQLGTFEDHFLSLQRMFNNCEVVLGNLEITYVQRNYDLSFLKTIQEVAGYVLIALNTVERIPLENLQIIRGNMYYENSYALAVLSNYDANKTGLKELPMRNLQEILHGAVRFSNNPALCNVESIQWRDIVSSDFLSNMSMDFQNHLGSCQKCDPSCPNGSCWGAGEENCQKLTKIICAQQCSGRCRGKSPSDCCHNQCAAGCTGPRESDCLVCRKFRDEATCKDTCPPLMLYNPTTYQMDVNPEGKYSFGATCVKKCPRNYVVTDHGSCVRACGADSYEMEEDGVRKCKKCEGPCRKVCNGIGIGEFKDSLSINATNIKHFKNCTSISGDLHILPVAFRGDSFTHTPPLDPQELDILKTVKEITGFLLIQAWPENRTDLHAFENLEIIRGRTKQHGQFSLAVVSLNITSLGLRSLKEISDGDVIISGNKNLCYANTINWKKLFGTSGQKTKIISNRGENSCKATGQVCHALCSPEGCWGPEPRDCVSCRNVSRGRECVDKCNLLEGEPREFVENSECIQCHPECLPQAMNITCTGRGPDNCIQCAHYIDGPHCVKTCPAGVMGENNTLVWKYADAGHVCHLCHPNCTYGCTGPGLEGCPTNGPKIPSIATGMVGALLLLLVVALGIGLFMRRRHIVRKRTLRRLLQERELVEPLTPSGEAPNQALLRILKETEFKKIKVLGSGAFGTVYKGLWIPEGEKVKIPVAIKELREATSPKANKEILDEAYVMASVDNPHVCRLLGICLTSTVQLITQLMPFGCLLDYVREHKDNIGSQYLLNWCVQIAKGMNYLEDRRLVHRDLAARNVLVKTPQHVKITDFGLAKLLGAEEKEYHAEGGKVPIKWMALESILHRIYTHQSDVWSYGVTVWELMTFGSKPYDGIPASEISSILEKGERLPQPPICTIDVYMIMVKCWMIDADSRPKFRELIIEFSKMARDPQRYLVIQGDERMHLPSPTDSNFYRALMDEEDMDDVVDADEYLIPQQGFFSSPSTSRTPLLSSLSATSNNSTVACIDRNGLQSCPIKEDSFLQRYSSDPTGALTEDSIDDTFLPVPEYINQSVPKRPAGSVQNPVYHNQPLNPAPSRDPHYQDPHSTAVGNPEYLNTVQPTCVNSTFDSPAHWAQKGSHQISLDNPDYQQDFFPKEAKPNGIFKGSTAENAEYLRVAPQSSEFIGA
Chain of Tyrosine-protein kinase ABL1 (Homo sapiens) (P00519 whole entry): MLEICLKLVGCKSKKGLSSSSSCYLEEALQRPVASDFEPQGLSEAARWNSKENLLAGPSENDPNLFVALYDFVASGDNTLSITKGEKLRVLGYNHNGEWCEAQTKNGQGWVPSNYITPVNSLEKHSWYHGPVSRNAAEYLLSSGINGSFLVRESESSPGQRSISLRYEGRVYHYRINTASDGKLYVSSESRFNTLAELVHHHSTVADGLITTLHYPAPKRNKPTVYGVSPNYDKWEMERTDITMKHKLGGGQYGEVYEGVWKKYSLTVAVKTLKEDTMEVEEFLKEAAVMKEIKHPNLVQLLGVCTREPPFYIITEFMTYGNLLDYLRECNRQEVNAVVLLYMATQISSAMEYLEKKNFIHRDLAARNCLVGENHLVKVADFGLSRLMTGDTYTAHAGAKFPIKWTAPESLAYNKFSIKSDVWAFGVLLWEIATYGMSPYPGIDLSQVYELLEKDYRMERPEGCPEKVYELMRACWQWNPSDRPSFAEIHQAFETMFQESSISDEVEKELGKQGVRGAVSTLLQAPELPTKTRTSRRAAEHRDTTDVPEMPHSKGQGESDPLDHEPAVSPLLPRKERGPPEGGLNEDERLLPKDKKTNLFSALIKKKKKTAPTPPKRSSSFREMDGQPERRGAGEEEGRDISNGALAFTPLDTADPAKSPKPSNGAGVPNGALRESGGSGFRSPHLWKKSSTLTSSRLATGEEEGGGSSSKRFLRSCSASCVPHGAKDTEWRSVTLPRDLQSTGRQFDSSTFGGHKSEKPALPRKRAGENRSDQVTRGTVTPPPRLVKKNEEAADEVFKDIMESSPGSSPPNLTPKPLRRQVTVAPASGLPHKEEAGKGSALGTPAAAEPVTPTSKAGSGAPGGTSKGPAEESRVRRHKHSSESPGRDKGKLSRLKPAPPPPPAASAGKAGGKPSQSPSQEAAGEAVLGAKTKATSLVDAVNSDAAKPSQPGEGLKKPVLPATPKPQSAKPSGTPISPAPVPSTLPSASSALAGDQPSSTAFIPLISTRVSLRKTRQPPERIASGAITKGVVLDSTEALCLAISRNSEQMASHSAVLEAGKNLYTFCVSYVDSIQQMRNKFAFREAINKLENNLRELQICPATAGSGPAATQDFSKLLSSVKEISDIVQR
Chain of Proto-oncogene tyrosine-protein kinase Src (Homo sapiens) (P12931 2-536 limits assumed): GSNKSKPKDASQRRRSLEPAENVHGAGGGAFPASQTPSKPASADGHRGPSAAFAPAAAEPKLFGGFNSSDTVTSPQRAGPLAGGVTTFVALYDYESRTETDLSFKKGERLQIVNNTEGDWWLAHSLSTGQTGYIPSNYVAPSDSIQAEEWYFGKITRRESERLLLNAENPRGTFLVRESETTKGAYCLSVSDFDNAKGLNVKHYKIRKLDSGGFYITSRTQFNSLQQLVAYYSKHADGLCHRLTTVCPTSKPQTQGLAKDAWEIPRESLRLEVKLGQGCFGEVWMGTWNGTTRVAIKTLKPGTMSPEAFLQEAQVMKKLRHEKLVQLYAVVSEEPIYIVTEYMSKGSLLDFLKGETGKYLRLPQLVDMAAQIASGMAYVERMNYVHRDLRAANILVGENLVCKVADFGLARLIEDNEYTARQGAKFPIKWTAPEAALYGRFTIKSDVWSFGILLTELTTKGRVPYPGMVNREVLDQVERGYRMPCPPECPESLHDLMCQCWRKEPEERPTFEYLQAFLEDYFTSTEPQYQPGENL

The term IC50 denotes the concentration that inhibits the measured activity by half. The low end stands for greater potency, the high end for weaker potency. Usually inhibition stands for the relative decrease from the control value, in per cent. A low value points to a weak effect. For `COc1cc2c(Nc3nc4ccc(C(=O)Nc5c(C)cccc5C)cc4s3)ncnc2cc1OCCCN1CCC(C)CC1`, the IC50 is greater than 100 µM with DLD-1; 72.3 µM in the test on NCI-H661; 89.7 µM in the test with A549; greater than 100 µM in the test on HCT-116; 11.2 µM in the test with U-937; 15.8 µM with K562. In addition, the values for the inhibition in test [1], in [2] and in test [3] were 13.3%, 56.5% and 54.2%, respectively.

In the case of `COc1cc2c(Nc3nc4ccc(C(=O)Nc5c(C)cc(C)cc5C)cc4s3)ncnc2cc1OCCCN1CCCCC1`, the IC50 came to 24.5 µM with DLD-1; 10 µM in the test with NCI-H661; 10.3 µM in the test on A549; 16.9 µM in the test with HCT-116; 12.2 µM with U-937; 9.3 µM in the test on K562. For the same compound, the figures for the inhibition in test [1], in [2] and in test [3] were 37.9%, 69.7% and 81.6%, respectively.

On to `CCN(CC)CCCOc1cc2ncnc(Nc3nc4ccc(C(=O)Nc5c(C)cccc5C)cc4s3)c2cc1OC`, for which the IC50 was greater than 100 µM in the test with DLD-1; 66.5 µM in the test on NCI-H661; greater than 100 µM in the test with A549; greater than 100 µM with HCT-116; 23.7 µM with U-937; 28.4 µM with K562. In addition, the inhibition in test [1] came to 10.5%; in [2], 53.6%; in test [3] it was 50%.

With `COc1cc2c(Nc3nc4ccc(C(=O)Nc5c(C)cccc5Cl)cc4s3)ncnc2cc1OCCCN1CCOCC1`, the IC50 in the test with DLD-1 was greater than 100 µM; in the test on NCI-H661, greater than 100 µM; with A549, 75.2 µM; in the test on HCT-116 it was greater than 100 µM; in the test with U-937, 22.6 µM; in the test on K562, 16.4 µM. Also, the values for the inhibition in test [1], in [2] and in [3] were 10.4%, 34.3% and 43.7%, respectively.

As to `COc1cc2c(Nc3nc4ccc(C(=O)Nc5c(C)cccc5Cl)cc4s3)ncnc2cc1OCCCN1CCCC1`, the IC50 was found to be 60.7 µM in the test with DLD-1; 45.5 µM with NCI-H661; 38.6 µM in the test on A549; 63.8 µM in the test on HCT-116; 19.9 µM with U-937; 13.3 µM in the test with K562. Moreover, the figures for the inhibition in [1], in test [2] and in test [3] were 15.6%, 55.7% and 78.7%, respectively.

`COc1cc2c(Nc3nc4ccc(C(=O)Nc5c(C)cccc5Cl)cc4s3)ncnc2cc1OCCCN1CCC(C)CC1`: the IC50 turned out to be 11.3 µM with DLD-1; 7.9 µM in the test with NCI-H661; 9.7 µM in the test on A549; 9.1 µM in the test with HCT-116; 9.2 µM in the test with U-937; 8.3 µM in the test on K562. The inhibition amounted to 23.7% in test [1], 67.4% in test [2] and 56.2% in [3].

As for `CCN(CC)CCCOc1cc2ncnc(Nc3nc4ccc(C(=O)Nc5c(C)cccc5Cl)cc4s3)c2cc1OC`, the IC50 with DLD-1 came out at 11.7 µM; with NCI-H661, 11.2 µM; in the test with A549 it was 10.6 µM; in the test with HCT-116, 13.2 µM; in the test with U-937, 7.3 µM; in the test with K562, 9.6 µM. Further, the inhibition was 46.8% in test [1], 68.2% in [2] and 67.1% in [3].

For the compound `COc1cc2c(Nc3nc4ccc(C(=O)Nc5c(C)cc(C)cc5C)cc4s3)ncnc2cc1OCCCN1CCCC1`, the IC50 with DLD-1 is 5.9 µM; in the test on NCI-H661 it was 9.6 µM; with A549 it was 8.9 µM; with HCT-116, 5.8 µM; with U-937, 4.6 µM; in the test with K562, 4.3 µM. Also, the results for the inhibition in test [1], in test [2] and in [3] were 48.7%, 91.8% and 82.3%, respectively.

As to `COc1cc2c(Nc3nc4ccc(C(=O)Nc5c(C)cccc5Cl)cc4s3)ncnc2cc1OCCCN1CCCCC1C` (configuration not stated), the IC50 was found to be 6.7 µM with DLD-1; 5.3 µM in the test with NCI-H661; 6.7 µM with A549; 7.2 µM in the test with HCT-116; 7 µM with U-937; 6.8 µM in the test on K562. In addition, the inhibition in test [1] came to 53.6%; in test [2], 78.9%; in test [3] it was 71.1%.

As for `COc1cc2c(Nc3nc4ccc(C(=O)Nc5c(C)cc(C)cc5C)cc4s3)ncnc2cc1OCCCN1CCC(C)CC1`, the IC50 with DLD-1 is 7 µM; in the test on NCI-H661, 7.7 µM; with A549 it was 5.4 µM; in the test with HCT-116, 6.9 µM; in the test with U-937, 5.6 µM; in the test on K562, 5.9 µM. Also, the inhibition in [1] is 36.3%; in [2] it was 78.6%; in test [3] it was 68.2%.

`COc1cc2c(Nc3nc4ccc(C(=O)Nc5c(C)cccc5C)cc4s3)ncnc2cc1OCCCN1CCCC1`: the IC50 was greater than 100 µM in the test on DLD-1; greater than 100 µM in the test on NCI-H661; 83.8 µM with A549; greater than 100 µM with HCT-116; 18.9 µM in the test with U-937; 15.7 µM in the test with K562. Moreover, the inhibition is 21.2% in [1], 39.9% in test [2] and 34.3% in [3].

`Cc1nc(Nc2ncc(C(=O)Nc3c(C)cccc3Cl)s2)cc(N2CCN(CCO)CC2)n1` [DASATINIB]: the IC50 with DLD-1 worked out at 4.6 µM; with NCI-H661 it was 7.8 µM; with A549 it was 8.2 µM; in the test with HCT-116, 5.3 µM; with U-937, 12.2 µM; in the test with K562, 11.9 µM.

Take `COc1cc2c(Nc3nc4ccc(C(=O)Nc5c(C)cc(C)cc5C)cc4s3)ncnc2cc1OCCCN1CCOCC1`: the IC50 with DLD-1 was found to be 5.8 µM; in the test with NCI-H661 it was 18.4 µM; with A549 it was 16.3 µM; with HCT-116, 5.6 µM; in the test with U-937 it was 24.2 µM; in the test on K562, 20 µM. The inhibition in test [1] stood at 45.1%; in test [2], 80.6%; in [3] it was 76.5%.

For `COc1cc2c(Nc3nc4ccc(C(=O)Nc5c(C)cccc5C)cc4s3)ncnc2cc1OCCCN1CCOCC1`, the IC50 with DLD-1 was greater than 100 µM; in the test with NCI-H661, greater than 100 µM; with A549, greater than 100 µM; in the test on HCT-116, greater than 100 µM; in the test on U-937, 19.2 µM; in the test on K562, greater than 100 µM. The inhibition in test [1] came out at 9.9%; in [2], 28.7%; in test [3], 41.7%.

For `CCN(CC)CCCOc1cc2ncnc(Nc3nc4ccc(C(=O)Nc5c(C)cc(C)cc5C)cc4s3)c2cc1OC`, the IC50 was found to be 6.8 µM in the test on DLD-1; 7.3 µM in the test with NCI-H661; 5.7 µM in the test on A549; 7.5 µM in the test on HCT-116; 4.3 µM in the test on U-937; 6.8 µM in the test with K562. Also, the figures for the inhibition in [1], in test [2] and in test [3] were 25.4%, 65.3% and 76.3%, respectively.

Regarding `COc1cc2c(Nc3nc4ccc(C(=O)Nc5c(C)cc(C)cc5C)cc4s3)ncnc2cc1OCCCN1CCCCC1C` (configuration not stated), the 50% inhibitory concentration (IC50) in the test with DLD-1 was 5.7 µM; with NCI-H661, 8.8 µM; in the test on A549, 5.8 µM; in the test with HCT-116 it was 5.6 µM; with U-937, 3.6 µM; in the test on K562 it was 3.5 µM. Further, the inhibition in test [1] is 65.8%; in test [2], 89.2%.

As to `COc1cc2c(Nc3nc4ccc(C(=O)Nc5c(C)cccc5Cl)cc4s3)ncnc2cc1OCCCN1CCCCC1`, the IC50 in the test on DLD-1 stood at 14.7 µM; in the test on NCI-H661, 13.8 µM; with A549, 12.8 µM; in the test on HCT-116 it was 23.4 µM; with U-937, 8.6 µM; in the test with K562 it was 12.5 µM. The inhibition in test [1] was 28.7%; in [2] it was 83.3%; in test [3] it was 49.9%.

With `COc1cc2c(Nc3nc4ccc(C(=O)Nc5c(C)cccc5C)cc4s3)ncnc2cc1OCCCN1CCCCC1C` (configuration not stated), the IC50 is greater than 100 µM with DLD-1; 84.4 µM with NCI-H661; 75.7 µM in the test with A549; greater than 100 µM with HCT-116; 10.8 µM in the test with U-937; 12.3 µM in the test with K562. Moreover, the inhibition in [1] was 25.4%; in test [2], 49%; in test [3], 49.2%.

Consider `COc1cc2c(Nc3nc4ccc(C(=O)Nc5c(C)cccc5C)cc4s3)ncnc2cc1OCCCN1CCCCC1`, for which the concentration for half-maximal inhibition (IC50) in the test with DLD-1 was greater than 100 µM; in the test on NCI-H661 it was greater than 100 µM; in the test on A549, greater than 100 µM; in the test with HCT-116, greater than 100 µM; in the test on U-937, 14.7 µM; in the test with K562, 13.7 µM. For the same compound, the figures for the inhibition in test [1], in test [2] and in test [3] were 17.3%, 43.4% and 39%, respectively.
